Work on O=P(O)(O)c1ccccc1 yielded a solubility (mole fraction) (in acetone, 288.15 K) of 0.136, a solubility (mole fraction) (in acetone, 293.15 K) of 0.155 and a solubility (mole fraction) (in acetone, 298.15 K) of 0.174. For the same compound, the solubility (mole fraction) (in acetone, 303.15 K) was 0.197, the solubility (mole fraction) (in acetone, 308.15 K) was 0.22 and the solubility (mole fraction) (in acetone, 313.15 K) was 0.245. For the same compound, the solubility (mole fraction) (in acetone, 318.15 K) was 0.277, the solubility (mole fraction) (in acetonitrile, 288.15 K) was 0.0136 and the solubility (mole fraction) (in acetonitrile, 293.15 K) was 0.0166. The solubility (mole fraction) (in acetonitrile, 298.15 K) was 0.0194, the solubility (mole fraction) (in acetonitrile, 303.15 K) was 0.0228 and the solubility (mole fraction) (in acetonitrile, 308.15 K) was 0.0275. It also gave a solubility (mole fraction) (in acetonitrile, 313.15 K) of 0.0317, a solubility (mole fraction) (in acetonitrile, 318.15 K) of 0.0365 and a solubility (mole fraction) (in chloroform, 288.15 K) of 0.00104. The solubility (mole fraction) (in chloroform, 293.15 K) was 0.00134, the solubility (mole fraction) (in chloroform, 298.15 K) was 0.00164 and the solubility (mole fraction) (in chloroform, 303.15 K) was 0.00211. The solubility (mole fraction) (in chloroform, 308.15 K) was 0.00257, the solubility (mole fraction) (in chloroform, 313.15 K) was 0.0032 and the solubility (mole fraction) (in chloroform, 318.15 K) was 0.00393. It also gave a solubility (mole fraction) (in ethyl acetate, 288.15 K) of 0.00523, a solubility (mole fraction) (in ethyl acetate, 293.15 K) of 0.00634 and a solubility (mole fraction) (in ethyl acetate, 298.15 K) of 0.00755. It also gave a solubility (mole fraction) (in ethyl acetate, 303.15 K) of 0.00896, a solubility (mole fraction) (in ethyl acetate, 308.15 K) of 0.0106 and a solubility (mole fraction) (in ethyl acetate, 313.15 K) of 0.0127. For the same compound, the solubility (mole fraction) (in ethyl acetate, 318.15 K) was 0.0155, the solubility (mole fraction) (in n-propanol, 288.15 K) was 0.305 and the solubility (mole fraction) (in n-propanol, 293.15 K) was 0.336. The solubility (mole fraction) (in n-propanol, 298.15 K) was 0.358, the solubility (mole fraction) (in n-propanol, 303.15 K) was 0.388 and the solubility (mole fraction) (in n-propanol, 308.15 K) was 0.417. For the same compound, the solubility (mole fraction) (in n-propanol, 313.15 K) was 0.445 and the solubility (mole fraction) (in n-propanol, 318.15 K) was 0.47.

— BigSolDB 2.1
